Measurements: patent publication US12036262B2, “Edible plant-derived nanoparticles for regulation of gut microbiota” (University of Louisville Research Foundation, Inc., priority 2017, dated 2024)

Key:
[1] = system: colon lymphocytes; assay: ELISA of IL-22 in supernatants of isolated colon lymphocytes; assay type: cell-based, mice
Description: Enzyme-Linked Immunosorbent Assay (ELISA). The cytokine IL-22, IL-1β, and TNFα levels in cell culture supernatants or mouse colon mucus were quantified using ELISA kits (eBioscience) according to the manufacturer's instructions. Briefly, a microtiter plate was coated with anti-mouse IL-22, IL-1β and TNFα antibody at 1:200 overnight at 4° C. Excess binding sites were blocked with 200 μl of 1×[…] Diluent (eBioscience, San Diego, California, United States of America) for 1 hour at 22° C. After washing three times with PBS containing 0.05% Tween 20, the plate was incubated with detection antibody in blocking buffer for 1 hour at 22° C. After three washes, avidin conjugated with horseradish peroxidase and substrate were each added sequentially for 1 hour and 30 min at 22° C. […] Isolation of Lymphoid Cells in the Colon. Intestinal lymphoid cells were isolated from the intestine by incubation in PBS supplemented with 1 mM EDTA, 15 mM HEPES and 10% FCS for 30 minutes at 37° C. Supernatants were discarded, and tissues were then incubated in RPMI supplemented with 15 mM HEPES and 300 units/mL collagenase type VIII (Sigma) for 30 minutes with gentle shaking. Lysates were gently pressed through nylon cell strainers (70 μm in diameter; […] Lymphocytes were recovered from the interface and washed twice.

[2] = system: LGG; assay: HPLC analysis of tryptophan metabolites in LGG MRS broth; assay type: cell-based, Lactobacillus rhamnosus
Description: HPLC Analysis of Tryptophan Metabolites. The fecal samples and LGG MRS broth were diluted with an equal volume of methanol. After centrifugation at 10,000×g for 30 minutes, 50 μl of supernatant was injected for high-performance liquid chromatography (HPLC) analysis. The HPLC analysis was performed on an Agilent 1260 Infinity system equipped with an Agilent ZORBAX SB-C18 column (4.6×150 mm, 3.5 μm), with following parameters: mobile phase A: 5 mM NH4Ac in water modified with 0.1% formic acid (v/v); mobile phase B: 5 mM NH4Ac in 90% acetonitrile modified with 0.1% formic acid (v/v); gradient: 5% B in first 5 min, 5-20% B for 10 min, hold 20% B for 5 min, 20%-50% B for 5 min, hold 50% B for 5 min, 50%-100% B for 5 min, hold 100% B for 10 min, 100-5% B for 5 min; flow rate: 1.0 ml/min; temperature: 30° C. UV detection at 300 nm was used to monitor indole-3-carboxaldehyde (I3A) and indole-3-acetaldehyde (IAAld); FLD (ex=280 nm; em=350 nm) was used for detection of tryptophan and indole-3-acetamide (I3AM). The standard for I3A (Catalog No. 129445-5g), I3AM (Catalog No. 286281-1G), IAAld (Catalog No. I1000-25MG), and tryptophan (Catalog No. T0254-25g) were purchased from Sigma.

[3] = system: IL-22, IL-1β, TNFα; assay: ELISA of IL-22, IL-1β and TNFα in colon mucus; assay type: in vivo, mice
Description: Enzyme-Linked Immunosorbent Assay (ELISA). The cytokine IL-22, IL-1β, and TNFα levels in cell culture supernatants or mouse colon mucus were quantified using ELISA kits (eBioscience) according to the manufacturer's instructions. Briefly, a microtiter plate was coated with anti-mouse IL-22, IL-1β and TNFα antibody at 1:200 overnight at 4° C. Excess binding sites were blocked with 200 μl of 1×ELISA/ELISPoT Diluent (eBioscience, San Diego, California, United States of America) for 1 hour at 22° C. After washing three times with PBS containing 0.05% Tween 20, the plate was incubated with detection antibody in blocking buffer for 1 hour at 22° C. After three washes, avidin conjugated with horseradish peroxidase and substrate were each added sequentially for 1 hour and 30 min at 22° C. An analysis of absorbance at 405 nm using a microtiter plate reader (BioTek Synergy HT, BioTek Instruments, Inc., Winooski, Vermont, United States of America) followed.

[4] = system: MC-38 cells; assay: Migration assay, intracellular LGG; assay type: cell-based, C57BL/6 murine
Description: Cells. C57BL/6 murine colon adenocarcinoma MC-38 cells (gender unknown; Kerafast, Inc., Boston, Massachusetts, United States of America) or human epithelial colorectal adenocarcinoma Caco-2 cells (American Type Culture Collection, ATCC®, Manassas, Virginia, United States of America) were grown in tissue culture plates with Dulbecco's modified Eagle's medium (DMEM) supplemented with 10% heat-inactivated fetal bovine serum (FBS), 100 U/mL penicillin, and 100 μg/mL streptomycin at 37° C. in a 5% CO2 atmosphere.
Migration Assays. MC-38 or Caco-2 cells (ATCC) were seeded at 1×10^5 cells per well in a 12-well tissue culture plate with Dulbecco's modified Eagle's medium (DMEM) without antibiotics. The cells were inoculated with 1×10^7 bacteria per well for 90 minutes at 37° C. in a 5% CO2 atmosphere to allow bacterial adhesion and entry. The number of intracellular bacteria was quantified as described in Zhang & Wang, 1998.

[5] = system: monooxygenase ycnE; assay: ycnE expression in LGG (qPCR, mRNA sequencing, LC-MS/MS); assay type: cell-based, Lactobacillus rhamnosus
Description: Quantitative Real-Time PCR for RNA Expression. The quantity of mature miRNAs was determined with quantitative real-time PCR (qPCR) using a miScript II RT kit (QIAGEN Inc., Germantown, Maryland, United States of America) and miScript SYBR Green PCR Kit (QIAGEN) with QIAGEN 3′ universal primers. For analysis of gene mRNA expression, 1 μg of total RNA was reverse transcribed using SuperScript III reverse transcriptase (Invitrogen, Waltham, Massachusetts, United States of America), and quantitation was performed using SsoAdvanced™ Universal SYBR Green Supermix (Bio-Rad Laboratories, Inc., Hercules, California, United States of America) and the listed primers (Table 1) with SsoAdvanced™ Universal SYBR Green Supermix (Bio-Rad). qPCR was performed using a Bio-Rad CFX96 qPCR System with each reaction run in triplicate. Analysis and fold-changes were determined using the comparative threshold cycle (Ct) method. Changes in miRNA or mRNA expression were calculated as fold-change. […]
LGG mRNA Sequencing. […] Following quantitation with Qubit dsDNA HS Reagent (Catalog No., Q32854; Thermo Scientific,), 10 ng of dscDNA/sample was fragmented with an E220 Focused-ultrasonicator (Covaris, Matthews, North Carolina, United States of America). […] Libraries were then combined into equimolar pools, which were then measured for size and concentration. […] The first and second reads were each 83 bases.

For `O=Cc1c[nH]c2ccccc12` [I3A, indole-3-carboxaldehyde], the “induction of IL-22 in colon lymphocytes from AHR KO mice” value ([1]; AHR KO mice) was “no evidence of an impact” and the “IL-22 in supernatants of colon lymphocytes” value ([1]; colon lymphocytes from naïve B6 mice incubated for 3 hours) was “induced expression of IL-22”.
`NC(=O)Cc1c[nH]c2ccccc12` [I3AM, indole-3-acetamide] was tested, and the “production of IAAld and I3A by LGG” value ([2]; MRS media, different concentrations of I3AM) was “inhibited the production of IAAld and I3A in a dose-dependent manner”, the “GELN-RNA-mediated induction of the I3A precursor IAAld in LGG cultures” value ([2]; addition of I3AM to LGG cultures) was “significantly inhibited” and the “inhibitory effect on IL-22 production in AHR KO mice” value ([3]; AHR KO mice treated with LGG supernatant exposed to I3AM) was “did not occur”.
For `O=CCc1c[nH]c2ccccc12` [IAAld, indole-3-acetaldehyde], the “inhibitory effect of I3AM on the production of I3A” value ([2]; additional IAAld) was “cancelled” and the “I3AM-mediated inhibitory effect on IL-22 production” value ([3]; colon mucus of WT mice gavaged with MRS medium from treated LGG) was “cancelled the I3AM-mediated inhibitory effort on IL-22 production”.
For “ath-miR827: GELN-derived miRNA, SEQ ID NO: 81 (UUAGAUGACCAUCAACAAACU; expressed or natural sequence)”, the “LGG entry into MC38 cells” value [4] was “could prevent the entry of LGG into gut epithelial cells”.
In the case of “ath-miR842: GELN-derived miRNA, SEQ ID NO: 82 (UCAUGGUCAGAUCCGUCAUCC; expressed or natural sequence)”, the “LGG entry into MC38 cells” value [4] is reported as “could prevent the entry of LGG into gut epithelial cells”.
In the case of “mdo-miR7267-3p: GELN-derived miRNA, SEQ ID NO: 129 (CAUCCAGCCAUCCACCCCAGGCCAUC; expressed or natural sequence)”, the “I3A in LGG cultures” value [2] is reported as “induction of I3A”, the “I3AM in LGG cultures” value [2] is reported as “inhibition of I3AM” and the “ycnE expression in LGG” value [5] is reported as “indeed inhibited”.
